Peptide text beside a SMILES is read from it. * marks the point of attachment. Palmitoyl = CCCCCCCCCCCCCCCC(=O)*
Assays:
Type in all cases: cell-based
[1] = system: HEK 293-hUT cells; assay: Cell proliferation, MTT assay and flow cytometry, HEK 293-hUT cells; conditions: 10^−6 M, three independent experiments in triplicate
Procedure: (§1) Each bar corresponds to the mean ± SEM obtained from three independent experiments conducted in triplicate.
HEK 293-hUT cell proliferation was evaluated by flow cytometry using propidium iodide DNA staining. […] Next, cells were detached, fixed with cold 70% ethanol, and then stored at –20 °C for at least 2 h. Cells were centrifuged at 200 rpm for 10 min at 4 °C and washed at least once with cold PBS. Cells were then resuspended in Triton X-100 (0.1%) supplemented with propidium iodide (500 μg mL^−1), and 200 μg mL^−1 of DNAse-free RNAse A in PBS. Data, expressed as the mean ± SEM of at least three independent experiments, were acquired on a FACScan (BD Biosciences), and results were analyzed with the FlowJo v10 software. The proliferation index is defined as the total number of divisions divided by the number of cells that went into division.

[2] = biological target: T1, hUT (Homo sapiens, UniProt Q9UKP6); assay: IP1 production, IP-One terbium immunoassay, CHO-hUT cells; design: expressed in transfected cells; host or cells: CHO-K1 cells stably expressing hUT (gift from H. Vaudry and C. Dubessy, University of Rouen); conditions: for IP1 production efficacy at 10^−5 M: 40 min, normalized to the hUII maximum effect; for EC50: 40 min incubation at 37 °C, mean ± SEM of at least three independent experiments in triplicate, read-out: IP1 production pEC50 (converted)
T1 sequence (Q9UKP6 1-389): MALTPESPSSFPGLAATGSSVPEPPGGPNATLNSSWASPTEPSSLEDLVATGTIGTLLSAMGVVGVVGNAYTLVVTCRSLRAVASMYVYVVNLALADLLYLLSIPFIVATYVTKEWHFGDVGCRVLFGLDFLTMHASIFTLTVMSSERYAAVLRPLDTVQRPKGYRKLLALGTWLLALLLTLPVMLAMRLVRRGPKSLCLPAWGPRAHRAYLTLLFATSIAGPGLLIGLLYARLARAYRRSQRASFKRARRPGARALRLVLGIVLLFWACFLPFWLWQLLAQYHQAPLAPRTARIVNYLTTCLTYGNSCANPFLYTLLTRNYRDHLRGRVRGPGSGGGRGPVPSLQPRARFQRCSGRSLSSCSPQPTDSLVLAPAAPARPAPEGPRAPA
Procedure: Figure 3 IP1production (A and B) and ERK1/2phosphorylation (C and D) kinetics and concentration dependence following hUT activation. IP1 production was evaluated using the IP-One terbium immunoassay kits while ERK1/2 phosphorylation was measured by western blot in CHO-K1 cells stably expressing hUT. […] Each curve represents the mean ± SEM of at least three independent experiments performed in triplicate.
This assay, performed with the IP-One terbium immunoassay kits from Cisbio, was used according to the manufacturer recommendation and as previously described ([43]). Briefly, CHO-hUT cells were grown in 10-cm dishes for 24 h. The cells were then starved without serum. The next day, cells were washed once with PBS and collected in PBS containing 20 mM EDTA. For the assay, 80,000 cells per well (96-well plate) were used. […] IP1-d2 and anti-IP1-cryptate were added for an additional 2 h at room temperature. Plates were read on a Flexstation 3 microplate reader.

[3] = system: rat neonatal cardiac fibroblasts; assay: Rat cardiac neonatal fibroblast proliferation, high content imaging; conditions: 10^−6 M, 24 h, three independent experiments in triplicate
Source text: as §1
Neonatal cardiac rat fibroblasts, endogenously expressing UT ([82]), were obtained from 1–3-day-old Sprague-Dawley pups as previously reported ([83]). Briefly, hearts obtained from neonatal rats were enzyme-digested and after centrifugation, cells were preplated to separate cardiomyocytes from fibroblasts. As reported, the adherent nonmyocyte fractions correspond predominantly to fibroblasts while the supernatants largely contain the cardiomyocytes. After several washes, attached fibroblasts were trypsinized and then cultured at 37 °C in 96-well plate (6000 cells per well) in low glucose-DMEM supplemented with 7% FBS, 100 units/ml of penicillin, and 100 μg/ml of streptomycin. After 48 h, cells were washed twice with low glucose-DMEM, and starved for 12 h in this medium. […] Cells are incubated with primary anti-smooth muscle α-actin antibody (1/500) in 10% horse serum/PBS overnight at 4 °C and later with secondary anti-rabbit Alexa Fluor 488 (1/1000) for 1 h at RT. Cell staining was performed using cell mask (1 μg mL^−1) in PBS for 30 min at room temperature and with Hoechst dye in PBS (1 μg/ml) for 10 min. Analysis was performed on an Opera Phoenix High Content Imaging System with a 20× water objective.

[4] = biological target: T1, hUT; assay: Gi activation, BRET biosensor, HEK 293-hUT cells; design: expressed in transfected cells; conditions: for EC50: HEK 293-hUT, BRET, mean ± SEM, n = 3–5, read-out: Gi activation pEC50 (converted)
[5] = biological target: T1, hUT; assay: β-arrestin 1 conformational change, BRET biosensor, HEK 293-hUT cells; design: expressed in transfected cells; conditions: for Emax: percentage of the activation induced by hUII (10^−6 M), n = 3–5
Procedure: Figure 6 Signaling signature of hUT-pepducins following hUT receptor activation. […] Each curve represents mean ± SEM of at least three independent concentration-response experiments performed in triplicate.
HEK 293-hUT cells were grown in DMEM culture media supplemented with 10% foetal bovine serum, HEPES, sodium pyruvate, and G418 (200 μg mL^−1). Passages were performed when cells reached 80% of confluency. Cells were initially plated in 96-well plates at a density of 10,000 cells/well. The following day, the medium is replaced with DMEM culture media supplemented with 2.5% foetal bovine serum (FBS), and 12 h later, cells were transiently transfected with 25 ng/well of a Gq-polycistronic, 25 ng/well of a G12-polycistronic BRET sensor, 25 ng/well of a G13-polycistronic BRET sensor, 2.5 ng/well pIRESB RLucII-ERK-NLS-GFP BRET sensor, 2.5 ng β-arrestin 1-polycistronic BRET sensor, or 2.5 ng β-arrestin 2-polycistronic BRET sensor using Lipofectamine2000 at a ratio of 3:1 (Lipofectamine/plasmid DNA) in serum-free Opti-MEM ([44], [81]). Sixteen hours posttransfection, medium was replaced with DMEM supplemented with 10% FBS, HEPES, sodium pyruvate and G418 (200 μg mL^−1) and cell growth was resumed for another 16 h. Cells were washed with 150 μl PBS solution supplemented with 0.1% of glucose and then incubated with 80 μl of this solution for 2 h. Then, to evaluate Gq and G12 activation, 10 μl of a 1/20 dilution (diluted before use) of coelenterazine 400A (stock at 1 mM in ethanol) in Kreb's buffer and 10 μl of the 10× appropriate concentration of peptide were added, and the luminescence was evaluated with an Infinite M1000 PRO. […] Readings were performed after 5 min using an Infinite M1000 PRO. Filters were set at 410 nm and 515 nm for detecting the Renilla luciferase II (RlucII, donor) and green fluorescent protein 10 (GFP10, acceptor) light emission, respectively. BRET ratio was determined by calculating the ratio of the light emitted by GFP10 over the light emitted by the RlucII.

Emax [2] [%] | time to plateau of IP1 production ([2]; CHO-hUT, time course) [min] | Emax at 1 µM [4] [%] | Structure (SMILES) | HEK 293-hUT cell proliferation [1] | IP1 production efficacy at 10^−5 M ([2]; CHO-hUT) | EC50 ([2]; CHO-hUT) [nM] | rat neonatal cardiac fibroblast proliferation [3] | Emax [4] [%] | EC50 [4] [nM] | EC50 ([5]; 15 min at RT, mean ± SEM, n = 3–5, read-out: β-arrestin 1 pEC50 (converted)) [nM] | Emax ([5]; 15 min at RT, mean ± SEM) [%] | β-arrestin 1 activation (in words) [5]
 |  |  | CCCCCCCCCCCCCCCC(=O)N[C@@H](Cc1c[nH]c2ccccc12)C(=O)N[C@@H](CC(C)C)C(=O)N[C@@H](CO)C(=O)N[C@@H](CCC(N)=O)C(=O)N[C@@H](CCCNC(=N)N)C(=O)N[C@@H](C)C(=O)N[C@@H](CO)C(=O)N[C@@H](Cc1ccccc1)C(=O)N[C@@H](CCCCN)C(=O)N[C@@H](CCCNC(=N)N)C(=O)N[C@@H](C)C(=O)N[C@@H](CCCNC(=N)N)C(=O)N[C@@H](CCCNC(=N)N)C(N)=O [[Trp^1, Leu^2]hUT-Pep3] (Palmitoyl-WLSQRASFKRARR-NH2) | able to induce HEK 293-hUT cell proliferation | ~60% | > 1000 | proliferative action in rat neonatal cardiac fibroblasts similar to what was observed with hUII | 97 ± 2 | 0.0407 | 8.32 | ~18 | 
97 ± 1 | 40 | 93 ± 2 | CC(C)[C@H](NC(=O)[C@@H]1CSSC[C@H](NC(=O)[C@H](CC(=O)O)NC(=O)[C@@H]2CCCN2C(=O)[C@@H](NC(=O)[C@@H](N)CCC(=O)O)[C@@H](C)O)C(=O)N[C@@H](Cc2ccccc2)C(=O)N[C@@H](Cc2c[nH]c3ccccc23)C(=O)N[C@@H](CCCCN)C(=O)N[C@@H](Cc2ccc(O)cc2)C(=O)N1)C(=O)O [hUII, urotensin II, reference compound] | able to induce HEK 293-hUT cell proliferation |  |  | proliferative action in rat neonatal cardiac fibroblasts similar to what was observed with hUII |  |  |  | 104 ± 4 | 
 |  |  | CCCCCCCCCCCCCCCC(=O)N[C@@H](CCCNC(=N)N)C(=O)N1CCC[C@H]1C(=O)N[C@@H](CC(C)C)C(=O)N[C@@H](CC(=O)O)C(=O)N[C@H](C(=O)N[C@H](C(=O)N[C@@H](CCC(N)=O)C(=O)N[C@@H](CCCNC(=N)N)C(=O)N1CCC[C@H]1C(=O)N[C@@H](CCCCN)C(=O)NCC(=O)N[C@@H](Cc1ccc(O)cc1)C(N)=O)C(C)C)[C@@H](C)O [hUT-Pep2] (Palmitoyl-RPLDTVQRPKGY-NH2) | not hUT-Pep2 were able to induce HEK 293-hUT cell proliferation | around 35% | > 1000 | proliferative action in rat neonatal cardiac fibroblasts similar to what was observed with hUII | 96 ± 2 | 0.0813 |  |  | inactive

From article PMC8424217 (The Journal of Biological Chemistry, 2021)
